Laboratory results as given in US11440913B2, “Aminoimidazopyridazines as kinase inhibitors” (BRISTOL-MYERS SQUIBB COMPANY, priority 2017, dated 2022).
Read-outs that look alike come from different tables or passages of the source.

Legend:
[1] = tested on: MLKL phosphorylation in HT29-L23 human colorectal adenocarcinoma cells; assay: MLKL Phosphorylation High-Content Assay; type: cell-based; conditions: 6 h, necroptosis induced with TNFα, SMAC mimetic and Z-VAD, read-out: pMLKL (IC50)
Method in brief: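 HT29-L23 cells pretreated 30 min at 37 °C with compound (6.25 to 0.106 μM final), then necroptosis induced with TNFα 35 ng/mL, SMAC mimetic 700 nM and Z-VAD 140 nM for 6 h. Fixed cells immunostained for MLKL pS358 and imaged; IC50 and Ymax from 4-parameter logistic fit.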

[2] = target: His-GST-TVMV-hRIPK1(1-324) (Homo sapiens (Human), UniProt Q13546); assay: RIPK1 HTRF Binding Assay; conditions: HTRF binding, 1 h at rt; read-out: RIPK1 (IC50)
Sequence of His-GST-TVMV-hRIPK1(1-324) (Q13546 1-324): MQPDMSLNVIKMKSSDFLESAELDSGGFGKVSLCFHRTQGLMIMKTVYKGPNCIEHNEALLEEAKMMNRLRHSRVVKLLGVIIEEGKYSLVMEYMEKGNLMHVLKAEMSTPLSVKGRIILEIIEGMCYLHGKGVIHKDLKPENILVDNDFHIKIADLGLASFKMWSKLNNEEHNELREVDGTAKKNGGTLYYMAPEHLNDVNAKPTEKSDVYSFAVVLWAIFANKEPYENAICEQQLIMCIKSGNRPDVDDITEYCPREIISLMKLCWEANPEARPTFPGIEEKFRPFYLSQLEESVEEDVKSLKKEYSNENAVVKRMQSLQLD
Method in brief: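 HTRF probe-displacement binding: 1 nM His-GST-TVMV-hRIPK1(1-324) (baculovirus construct), 90.6 nM probe, 0.2 nM anti-GST-Tb in 20 mM HEPES, 10 mM MgCl2, 0.015% Brij-35, 4 mM DTT, 0.05 mg/mL BSA. Incubated 1 h at rt; FRET 520/495 nm ratio, inhibition relative to DMSO-only wells.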

## CC(=O)Nc1cn2nc(-c3cc(F)c(F)c(C(=O)N[C@H](C)c4cc(OC(F)(F)F)ccc4F)c3)ccc2n1 [Example 367, 5-{2-acetamidoimidazo [1,2-b]pyridazin-6-yl}-2,3-difluoro-N-[(1R)-1-[2-fluoro-5-(trifluoromethoxy)phenyl]ethyl] benzamide]
[1]; Homo sapiens
  IC50: 194 nM
[2]
  IC50: 56 nM

## CC(=O)Nc1cn2nc(-c3cncc(C(=O)NCc4c(F)cccc4OC4CCCC4)c3)ccc2n1 [Example 240, N-{[2-(cyclopentyloxy)-6-fluorophenyl]methyl}-5-{2-acetamidoimidazo[1,2-b]pyridazin-6-yl}pyridine-3-carboxamide]
[1]; Homo sapiens
  IC50: 8 nM
[2]
  IC50: 5 nM

## CC(=O)Nc1cn2nc(-c3cc(C(=O)NCc4cc(F)ccc4OC(F)(F)F)cnc3Cl)ccc2n1 [Example 322, 6-chloro-5-{2-acetamidoimidazo[1,2-b]pyridazin-6-yl}-N-{[5-fluoro-2-(trifluoromethoxy)phenyl]methyl}pyridine-3-carboxamide]
[1]
  IC50: 51 nM
[2]
  IC50: 8 nM

## CC(=O)Nc1cn2nc(-c3cc(C(=O)NCc4cc(F)ccc4OC(F)(F)F)cnc3Cl)ccc2n1 [Example 321, 6-chloro-5-{2-acetamidoimidazo[1,2-b]pyridazin-6-yl}-N-{[5-fluoro-2-(trifluoromethoxy)phenyl]methyl}pyridine-3-carboxamide]
[1]; Homo sapiens
  IC50: 386 nM
[2]
  IC50: 44 nM

## COc1ncc(-c2ccc3nc(NC(C)=O)cn3n2)cc1C(=O)NCc1cccc(F)c1OC(C)C1CC1 (centres unmarked) [Example 134, N-{[2-(1-cyclopropylethoxy)-3-fluorophenyl]methyl}-5-{2-acetamidoimidazo[1,2-b]pyridazin-6-yl}-2-methoxypyridine-3-carboxamide]
[1]
  IC50: 28 nM
[2]
  IC50: 18 nM

## [2H]C([2H])([2H])Oc1nc(C)c(-c2ccc3nc(NC(C)=O)cn3n2)cc1C(=O)NCc1cc(OCC2CC2)ccc1F [Example 180, N-{[5-(cyclopropyhnethoxy)-2-fluorophenyl]methyl}-5-{2-acetamidoimidazo[1,2-b]pyridazin-6-yl}-2-(deutero)methoxy-6-methylpyridine-3-carboxamide]
[1]; Homo sapiens
  IC50: 18 nM
[2]
  IC50: 4 nM

## Cc1nc(C)c(-c2ccc3nc(NC(=O)CO)cn3n2)cc1C(=O)N[C@H](C)c1cc(OC(F)(F)F)ccc1F [Example 95, N-[(1R)-1-[2-fluoro-5-(trifluoromethoxy)phenyl]ethyl]-5-[2-(2-hydroxyacet-amido)imidazo[1,2-b]pyridazin-6-yl]-2,6-dimethylpyridine-3-carboxamide]
[1]; Homo sapiens
  IC50: 68 nM
[2]
  IC50: 30 nM

## Cc1ncc(-c2ccc3nc(NC(=O)CN(C)C)cn3n2)cc1C(=O)N[C@H](C)c1cc(OC(F)(F)F)ccc1F [Example 338, 5-{2-[2-(dimethylamino)-acetamido]-imidazo[1,2-b]pyridazin-6-yl}-N-[(1R)-1-[2-fluoro-5-(trifluoromethoxy)-phenyl]ethyl]-2-methylpyridine-3-carboxamide]
[1]; Homo sapiens
  IC50: 50 nM
[2]
  IC50: 21 nM

## CC(=O)Nc1cn2nc(-c3cnc(Cl)c(C(=O)NC(C)c4ccccc4OC(F)(F)F)c3)ccc2n1 (centres unmarked) [Example 268, 2-chloro-5-{2-acetamidoimidazo[1,2-b]pyridazin-6-yl}-N-{1-[2-(trifluoromethoxy)phenyl]ethyl}pyridine-3-carboxamide]
[1]; Homo sapiens
  IC50: 73 nM
[2]
  IC50: 46 nM

## [2H]C([2H])(NC(=O)c1cc(-c2ccc3nc(NC(C)=O)cn3n2)cnc1OC)c1cc(F)cc(F)c1OC1CCOCC1 [Example 153, 5-(2-acetamidoimidazo[1,2-b]pyridazin-6-yl)-N-((3,5-difluoro-2-((tetrahydro-2H-pyran-4-yl)oxy)phenyl)methyl-d2)-2-methoxynicotinamide]
[1]; Homo sapiens
  IC50: 1 nM
[2]
  IC50: 1 nM

## COc1ncc(-c2ccc3nc(NC(C)=O)cn3n2)cc1C(=O)NC(C)c1cc(F)cc(F)c1OCC1CC1 (centres unmarked) [Example 133, N-{1-[2-(cyclopropylmethoxy)-3,5-difluorophenyl]ethyl}-5-{2-acetamidoimidazo[1,2-b]pyridazin-6-yl}-2-methoxypyridine-3-carboxamide]
[1]
  IC50: 8 nM
[2]
  IC50: 23 nM

## CC(=O)OCC(=O)Nc1cn2nc(-c3cc(C(=O)NCc4cc(OC(F)(F)F)ccc4F)c(C)nc3C)ccc2n1 [Example 327, ({6-[5-({[2-fluoro-5-(trifluoromethoxy)phenyl]methyl}carbamoyl)-2,6-dimethylpyridin-3-yl]imidazo[1,2-b]pyridazin-2-yl}carbamoyl)methyl acetate]
[1]; Homo sapiens
  IC50: 25 nM
[2]
  IC50: 5 nM

## CC(=O)Nc1nc2ccc(-c3cnc(C)c(C(=O)NCc4cc(C(F)(F)F)ccc4F)c3)nn2c1C [Example 252, 5-{2-acetamido-3-methylimidazo[1,2-b]pyridazin-6-yl}-N-{[2-fluoro-5-(trifluoromethyl)phenyl]methyl}-2-methylpyridine-3-carboxamide]
[1]; Homo sapiens
  IC50: 133 nM
[2]
  IC50: 27 nM

## COc1ncc(-c2ccc3nc(NC(=O)C(C)(C)O)cn3n2)cc1C(=O)NCc1cccc(F)c1OCC1CC1 [Example 15, N-{[2-(cyclopropylmethoxy)-3-fluorophenyl]methyl}-5-[2-(2-hydroxy-2-methylpropanamido)imidazo[1,2-b]pyridazin-6-yl]-2-methoxypyridine-3-carboxamide]
[1]; Homo sapiens
  IC50: 198 nM
[2]
  IC50: 83 nM

## [2H]C([2H])([2H])[C@@H](NC(=O)c1c(OC)ccc(-c2ccc3nc(NC(C)=O)cn3n2)c1F)c1cc(OC(F)(F)F)ccc1F [Example 378, 3-{2-acetamidoimidazo [1,2-b]pyridazin-6-yl}-2-fluoro-N-[(1R)-1-[2-fluoro-5-(trifluoromethoxy)phenyl](2,2,2-Â^2Hâ,f)ethyl]-6-methoxybenzamide]
[1]; Homo sapiens
  IC50: 1 nM
[2]
  IC50: 6 nM

## N-[(1R)-1-[2-fluoro-5- (trifluoromethyl)- phenyl]ethyl]-2- methyl-5-(2-{2-[4- (trifluoromethyl)piperidin-1- yl]acetamido}imidazo[1,2- b]pyridazin-6-yl)pyridine-3- carboxamide [Example 331]
[1]
  IC50: 68 nM
[2]
  IC50: 42 nM

## CCC(=O)Nc1cn2nc(-c3cnc(OC)c(C(=O)NCC[C@H](O)c4ccc(Cl)cc4)c3)ccc2n1 [Example 246, N-[(3S)-3-(4-chlorophenyl)-3-hydroxypropyl]-2-methoxy-5-{2-propanamidoimidazo[1,2-b]pyridazin-6-yl}pyridine-3-carboxamide]
[1]; Homo sapiens
  IC50: 105 nM
[2]
  IC50: 92 nM

## COc1ncc(-c2ccc3nc(NC(C)=O)cn3n2)cc1C(=O)NCc1cc(F)cc(F)c1OC1CCCOC1 (centres unmarked) [Example 99, N-{[3,5-difluoro-2-(oxan-3-yloxy)phenyl]methyl}-5-{2-acetamidoimidazo[1,2-b]pyridazin-6-yl}-2-methoxypyridme-3-carboxamide]
[1]
  IC50: 24 nM
[2]
  IC50: 6 nM

## [2H]C([2H])([2H])Oc1ncc(-c2ccc3nc(NC(C)=O)cn3n2)cc1C(=O)NC(C)c1ccccc1OC(F)(F)F (centres unmarked) [Example 57, 5-{2-acetamidoimidazo[1,2-b]pyridazin-6-yl}-2-(D3)methoxy-N-{1-[2-(trifluoromethoxy)phenyl]eth-yl}pyridine-3-carboxamide]
[1]
  IC50: 25 nM
[2]
  IC50: 10 nM

## COc1ncc(-c2ccc3nc(NC(C)=O)cn3n2)cc1C(=O)NCc1ccccc1N1CCOCC1 [Example 162, 5-{2-acetamidoimidazo[1,2-b]pyridazin-6-yl}-2-methoxy-N-{[2-(morpholin-4-yl)phenyl]methyl}pyridine-3-carboxamide]
[1]; Homo sapiens
  IC50: 140 nM
[2]
  IC50: 64 nM

## COc1ncc(-c2ccc3nc(NC(=O)C(C)C)cn3n2)cc1C(=O)NCc1cc(OC(F)(F)F)ccc1F [Example 11, N-{[2-fluoro-5-(trifluoromethoxy)phenyl]methyl}-2-methoxy-5-[2-(2-methylpropanamido)imidazo[1,2-b]pyridazin-6-yl]pyridine-3-carboxamide]
[1]; Homo sapiens
  IC50: 89 nM
[2]
  IC50: 20 nM

## CC(=O)Nc1cn2nc(-c3cnc(C)c(C(=O)NC(C)c4cc(C(F)(F)F)ccc4F)c3)ccc2n1 (centres unmarked) [Example 204, 5-{2-acetamidoimidazo[1,2-b]pyridazin-6-yl}-N-{1-[2-fluoro-5-(trifluoromethyl)phenyl]ethyl}-2-methylpyridine-3-carboxamide]
[1]; Homo sapiens
  IC50: 83 nM
[2]
  IC50: 122 nM

## CC(=O)Nc1cn2nc(-c3cc(C(=O)N[C@H](C)c4cc(OC(F)(F)F)ccc4F)c(C)nc3C)ccc2n1 [Example 71, 5-{2-acetamidoimidazo[1,2-b]pyridazin-6-yl}-N-[(1R)-1-[2-fluoro-5-(trifluoromethoxy)phenyl]ethyl]-2,6-dimethylpyridine-3-carboxamide]
[1]; Homo sapiens
  IC50: 13 nM
[2]
  IC50: 5 nM

## CC(=O)Nc1cn2nc(-c3ccc(F)c(C(=O)NCc4cc(F)ccc4C(=O)N4CCC(F)(F)CC4)c3F)ccc2n1 [Example 381, N-{[2-(4,4-difluoropiperidine-1-carbonyl)-5-fluorophenyl]methyl}-3-{2-acetamidoimidazo [1,2-b]pyridazin-6-yl}-2,6-difluorobenzamide]
[1]; Homo sapiens
  IC50: 74 nM
[2]
  IC50: 8 nM

## Cc1ncc(-c2ccc3nc(NC(=O)CN)cn3n2)cc1C(=O)N[C@H](C)c1cc(OC(F)(F)F)ccc1F [Example 341, 5-[2-(2-aminoacetamido)-imidazo[1,2-b]pyridazin-6-yl]-N-[(1R)-1-[2-fluoro-5-(trifluoromethoxy)-phenyl]ethyl]-2-methylpyridine-3-carboxamide]
[1]; Homo sapiens
  IC50: 492 nM
[2]
  IC50: 91 nM
